Results: patent US20250263457A1, “Pharmaceutical Composition for Preventing and Treating Liver Disease Comprising Novel Peptide” (Pusan National University Industry-University Cooperation …, priority 2024, published 2025)

Columns and labels:
CD44 = assay: Immunofluorescence of CD44ICD and α-SMA in human pHSCs; type: cell-based; settings: 40 ng/ml, immunofluorescence (FIG. 3B)
Description: The cleavage of CD44 and the expression of the activation marker of pHSCs by peptide YJ treatment were confirmed through immunofluorescence. At this time, human pHSCs treated with PBS were used as a control group.
Specifically, human pHSCs (5×10^4 cells/ml) were seeded on coverslips and then cultured overnight. The cells were treated with peptide YJ at a concentration of 40 ng/ml and further cultured for 6, 12, and 24 hours, respectively. The cells were fixed and permeabilized by treating each cell with 4% paraformaldehyde and 0.01% Triton X-100. To inhibit non-specific binding of antibodies, blocking (Dako, X9090) was performed, and then the primary antibodies were treated and reacted overnight at 4° C. At this time, the primary antibodies used were anti-CD44ICD antibody (Cosmo Bio, KAL-KO601) and α-SMA (Sigma-Aldrich, A5228). Thereafter, the cells were washed with TBS, treated with a secondary antibody, and reacted at room temperature for 30 minutes. The secondary antibody used were Alexa Fluor 488-conjugated chicken anti-mouse IgG antibody (Invitrogen, A21200) or Alexa Fluor 568-conjugated goat anti-rabbit IgG antibody (Invitrogen, A10042). The cells were washed with TBS, and then treated with 4′,6-diamidino-2-phenylinole (DAPI, VECTASHIELD, H-1200-10) to perform nuclear staining. Finally, the coverslip was fixed on a slide glass using a mounting solution and then observed with a confocal microscope DMi8-S (Leica Microsystems) or CLSM21 (Carl Zeiss Inc.).

human pHSCs = assay: Cell survival of human pHSCs by MTS assay; type: cell-based; settings: 0, 20, 40, or 100 ng/ml; 24 and 48 hours; vs PBS control (FIG. 2B)
Description: 100 μl of human pHSCs (5×10^4 cells/ml) were seeded into 96 wells and cultured overnight. The cells were treated with peptide YJ at a concentration of 0, 20, 40, or 100 ng/ml and then further cultured. After 24 and 48 hours, cell survival for each cell was confirmed through MTS assay (Cell titer proliferation assay, G3580, Promega) (FIG. 2A). At this time, human pHSCs treated with PBS were used as a control group (vehicle).

[1] = system: alcohol-related liver disease mouse model; assay: Inflammatory response (CD68, F4/80 immunohistochemistry) and alcohol metabolism/apoptosis markers (Western blot) in liver tissue of mouse model; type: in vivo, C57BL/6 male mice; settings: 3.3 μg/kg i.p. every other day for three weeks, vs vehicle
From the text: (§1) To prepare alcohol-related liver disease mice, 8-week-old C57BL/6 male mice were fed with a Lieber DeCarli liquid diet (Dyets, 710260) containing 5% EtOH for 9 weeks, and then injected intraperitoneally with a vehicle (PBS) every other day along with feeding liquid diet for additional 3 weeks. As a control group for the EtOH diet, mice fed with a pair Lieber DeCarli liquid diet (Dyets, 710027) having the same total calories as the EtOH diet were used (FIG. 4A).
Specifically, the liver tissue extracted from the mouse was fixed by treating 10% neutral buffered formalin, and then embedded using paraffin. The liver tissue paraffin block was cut into 4 μm-thick sections to produce tissue section slides. After deparaffinization and hydration processes of the tissue section slides, 3% hydrogen peroxide was treated to block endogenous peroxidase. Then, the section slides were treated with 10 mM sodium citrate buffer (pH 6.0) and heated for 10 minutes or treated with 0.2% pepsin to induce antigen retrieval. To inhibit non-specific binding of antibodies, blocking (Dako, X9090) was performed, and then the primary antibodies were treated and reacted overnight at 4° C. At this time, the primary antibodies used were anti-CD68 antibody (Abcam, ab125212) and anti-F4/80 antibody (Abcam, ab6640). The section slides were washed with TBST and then treated with secondary antibodies and reacted. The secondary antibodies used were EnVision+ Single Reagents (HRP, Rabbit) (Dako, K4003) and Goat anti-rat IgG-heavy and light chain antibodies (HRP conjugated) (BETHYL, A110-105P). Thereafter, the section slides were washed with TBST and treated with 3,3′-diaminobenzidine (DAB) (Dako, K3466) to develop the color. After the color development, the tissues of the section slides were dehydrated, mounted, fixed, and then observed under a microscope.
(§2) The alcohol-related liver disease mouse model established by the method of Example 5.1 was administered vehicle (PBS) or peptide YJ (3.3 μg/kg) intraperitoneally every other day for three weeks, and then blood was collected and liver tissue was extracted to confirm the liver disease treatment effect of peptide YJ.
The degree of inflammatory response in the liver tissue extracted from the experimental mice of Example 5.3 was confirmed in the same manner as in Example 5.3.2.
In addition, the expression of alcohol metabolism markers and apoptosis marker proteins was confirmed through Western blot. Western blot was performed in the same manner as in Example 2. At this time, the primary antibodies used were anti-CYP2E1 antibody ([…], ab125212), anti-4HNE antibody (Abcam, ab46545), anti-cleaved caspase-3 antibody (Cell Signaling Technology, 9661s), anti-caspase-3 antibody (Cell Signaling Technology, 9662s), and anti-GADPH antibody.

[2] = system: alcohol-related liver disease mouse model; assay: Fibrosis markers and collagen accumulation in liver tissue of mouse model; type: in vivo, C57BL/6 male mice; settings: 3.3 μg/kg i.p. every other day for three weeks, EtOH diet group, vs vehicle
From the text: as §1
In most chronic liver diseases, severe inflammatory responses were accompanied by fibrosis. Accordingly, the degree of fibrosis in the liver tissue of the alcohol-related liver disease mouse model established by the method of Example 5.1 in the present disclosure was confirmed through the expression of fibrosis markers using RT-qPCR and Western blot. In addition, the accumulation of collagen in the liver tissue and the expression of α-SMA were confirmed. In addition, the concentration of collagen in the liver tissue was confirmed through Sirius red staining, and the expression of α-SMA was confirmed through immunohistochemical staining. At this time, RT-qPCR and Western blot were performed in the same manner as in Example 2, and immunohistochemical staining (IHC) was performed in the same manner as in Example 5.2.3. In IHC, an anti-α-SMA antibody was used as the primary antibody.
After deparaffinization and hydration of the liver tissue section slides prepared in the same manner as in Example 5.2.3, the section slides were treated with 0.1% Sirius red F3B (Sigma-Aldrich) and 0.1% Fast Green (Sigma-Aldrich) solutions containing saturated picric acid (Sigma-Aldrich) and reacted for 20 minutes. After the staining reaction was completed, the section slides were dehydrated, mounted, and observed under a microscope. […] In addition, it was confirmed that the expression of α-SMA in the liver tissue in the EtOH diet group increased compared to the control group (pair) (FIG. 5D).
as §2
The degree of fibrosis in the liver tissue extracted from the experimental mice of Example 5.3 was confirmed in the same manner as in Example 5.2.4.

[3] = EtOH diet group, Western blot (FIG. 6F)
[4] = RT-qPCR, Western blot (FIGS. 7A, 7B)

## peptide YJ: TSG-6 fragment: core domain RSGKYKLTYAEAKA plus C-terminal extension VCEFEGGHLATYKQLEAARKIGFHVCAAGWMAK (SEQ ID NO: 9); TSG-6 mimetic (RSGKYKLTYAEAKAVCEFEGGHLATYKQLEAARKIGFHVCAAGWMAK; peptide 4)
CD44; 12 hours
  expression of CD44ICD in the nucleus: decreased
  expression of α-SMA: decreased
CD44; 24 hours
  expression of CD44ICD in the nucleus: no expression of CD44ICD in the nucleus was observed
  expression of α-SMA: significantly decreased
Human pHSCs
  cell survival and proliferation: no changes in cell survival and proliferation were observed
[1]; EtOH diet group, IHC (FIG. 6E)
  expression of CD68 in liver tissue: significantly reduced
  expression of F4/80 in liver tissue: significantly reduced
[1]; [3]
  expression of 4HNE in liver: did not show a significant difference
  expression of CYP2E1 in liver: did not show a significant difference
[1]; Western blot (FIG. 6F)
  expression of cleaved caspase-3 (apoptosis marker) in liver: decreased
[2]; [4]
  mRNA and protein expression of collagen1α1 in the liver tissue: significantly reduced
  mRNA and protein expression of vimentin in the liver tissue: significantly reduced
  mRNA and protein expression of α-SMA in the liver tissue: significantly reduced
[2]; hydroxyproline assay, Sirius red staining, IHC (α-SMA) (FIGS. 7C, 7D)
  collagen accumulation in the liver tissue: significantly reduced
